Tested on: Rat Calvarial Osteoblasts (RCOs)
Experiment: ALP assay (osteoblast differentiation) in rat calvarial osteoblasts
Type: cell-based
Conditions: for Activity in ALP Assay (Positive/Negative) / Effect on ALP activity compared to the control (vehicle): 48 h; for EC50: Rattus norvegicus, Calvarial osteoblast, 48 h in osteoblast differentiation media
Protocol: Sequential digestion was performed to isolate calvarial osteoblast cells from neonatal rat pups. Briefly, calvariae were harvested from ten to twelve 1–2-day old rat pups, cleaned, and subjected to five sequential enzymatic digestions (0.1% dispase and 0.1% collagenase I) of 10–15 min each, followed by culturing of the harvested cells in α-MEM supplemented with 10% FBS [22].
RCOs were seeded in 24-well plates (1 × 10^4 cells/well), and the cells were treated for 48 h in osteoblast differentiation media (α-MEM supplemented with 10 mM β-glycerophosphate and 50 μg/mL ascorbic acid) with the imidazole group of chemicals (10^−11 M–10^−6 M).
A total of 2 mg/mL of para-Nitrophenyl phosphate in diethanolamine buffer was used to measure the ALP activity at a 405 nm wavelength.

| SMILES | Activity in ALP Assay (Positive/Negative) | Effect on ALP activity compared to the control (vehicle) | EC50 |
| --- | --- | --- | --- |
| O=C(Cn1ccnc1[N+](=O)[O-])NCCO [Etanidazole] | Positive | significantly increased | 0.4 µM |
| Cc1ncc([N+](=O)[O-])n1CC(O)CCl (stereo not drawn) [Ornidazole] | Negative | no effect | > 10 µM |
| Cn1c([N+](=O)[O-])cnc1COC(N)=O [Ronidazole] | Negative | no effect | > 10 µM |
| Cc1ncc([N+](=O)[O-])n1CC(C)O (stereo not drawn) [Secnidazole] | Negative | no effect | > 10 µM |
| CCS(=O)(=O)CCn1c([N+](=O)[O-])cnc1C [Tinidazole] | Negative | no effect | > 10 µM |

— publication PMC11274654 (Biomedicines, 2024)
